From patent US8076487B2, “Pyridone derivative and herbicide” (Kumiai Chemical Industry Co., Ltd., priority 2006, dated 2011)

What was measured:
Type in all cases: in vivo
[1] = system: green foxtail (Setaria viridis (L.) P. Beauv.); assay: Test Example 3: herbicidal effect by application to upland field (foliage treatment); settings: 14th day after application; for herbicidal effect (index), Green Foxtail: foliage treatment, plants grown two weeks, 1,000 g active ingredient per hectare; for herbicidal effect, Green Foxtail: foliage treatment, 1,000 g active ingredient per 1 hectare, greenhouse
Procedure: (§1) [table] Test Example 3 Test on Herbicidal Effect by Application to Upland Field In a 80 cm2 plastic pot, field soil was filled. Seeds of barnyardgrass (Echinochloa crus-galli (L.) P. Beauv. var. crus-galli), green foxtail (Setaria viridis (L.) P. Beauv.), velvetleaf (Abutilon theophrasti medicus), and slender amaranth (Amaranthus viridis L.) were sown and allowed to grow for two weeks in a greenhouse. Thereafter, the wettable powder prepared according to Formulation Example 1 was diluted in water and a 1,000 liter equivalent amount per 1 hectare so that the active ingredient becomes 1,000 g per 1 hectare was sprayed using a small sprayer from a top of the plants through its entire body for foliage treatment. Then, on the 14th day after the application to the plants grew in a greenhouse, the herbicidal effect was examined in accordance with a standard shown in Table 34.

[2] = system: barnyardgrass (Echinochloa crus-galli (L.) P. Beauv. var. crus-galli); assay: as above; settings: 14th day after application; for herbicidal effect (index), Barnyardgrass: foliage treatment, plants grown two weeks, 1,000 g active ingredient per hectare; for herbicidal effect, Barnyardgrass: foliage treatment, 1,000 g active ingredient per 1 hectare, greenhouse
Procedure: as §1

[3] = system: velvetleaf (Abutilon theophrasti medicus); assay: as above; settings: 14th day after application; for herbicidal effect (index), Velvetleaf: foliage treatment, plants grown two weeks, 1,000 g active ingredient per hectare; for herbicidal effect, Velvetleaf: foliage treatment, 1,000 g active ingredient per 1 hectare, greenhouse
Procedure: as §1

[4] = system: slender amaranth (Amaranthus viridis L.); assay: as above; settings: 14th day after application; for herbicidal effect (index), Slender Amaranth: foliage treatment, plants grown two weeks, 1,000 g active ingredient per hectare; for herbicidal effect, Slender Amaranth: foliage treatment, 1,000 g active ingredient per 1 hectare, greenhouse
Procedure: as §1

[5] = system: early watergrass (Echinochloa oryzicola Vasing); assay: Test Example 1: herbicidal effect by soil application to paddy field; settings: for herbicidal effect, Echinochloa oryzicola Vasing: paddy field soil application, active ingredient 1,000 g per 1 hectare, wettable powder added dropwise to water surface the day after sowing, examined on the 21st day after application; for herbicidal effect (index), Echinochloa oryzicola Vasing: soil application to paddy field, rated by standard of Table 34
Summary of the method: (§2)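 Plants were sown in flooded (3 cm) paddy soil and evaluated for herbicidal effect 21 days after soil application in a greenhouse.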

[6] = system: Japanese bulrush (Scirpus juncoides Roxb.); assay: as above; settings: for herbicidal effect, Scirpus juncoides Roxb.: paddy field soil application, active ingredient 1,000 g per 1 hectare, wettable powder added dropwise to water surface the day after sowing, examined on the 21st day after application; for herbicidal effect (index), Scirpus juncoides Roxb.: soil application to paddy field, rated by standard of Table 34
Summary of the method: as §2

[7] = system: heartshape false pickerelweed (Monochoria vaginalis (Burm.f.) C.Presl); assay: as above; settings: for herbicidal effect, Monochoria vaginalis (Burm. f.) C. Presl: paddy field soil application, active ingredient 1,000 g per 1 hectare, wettable powder added dropwise to water surface the day after sowing, examined on the 21st day after application; for herbicidal effect (index), Monochoria vaginalis (Burm.f.) C.Presl: soil application to paddy field, rated by standard of Table 34
Summary of the method: as §2

Row | Structure (SMILES) | herbicidal effect (index), Green Foxtail [1] | herbicidal effect (index), Barnyardgrass [2] | herbicidal effect (index), Velvetleaf [3] | herbicidal effect (index), Slender Amaranth [4] | herbicidal effect, Echinochloa oryzicola Vasing [5] | herbicidal effect, Scirpus juncoides Roxb. [6] | herbicidal effect, Monochoria vaginalis (Burm. f.) C. Presl [7] | herbicidal effect, Green Foxtail [1] | herbicidal effect, Barnyardgrass [2] | herbicidal effect, Velvetleaf [3] | herbicidal effect, Slender Amaranth [4] | herbicidal effect (index), Echinochloa oryzicola Vasing [5] | herbicidal effect (index), Scirpus juncoides Roxb. [6] | herbicidal effect (index), Monochoria vaginalis (Burm.f.) C.Presl [7]
1 | CCn1c(C(F)(F)F)ccc(C(=O)C2=C(O)CCCC2=O)c1=O [I-2] | 5 (90% or more of herbicidal effect and crop phytotoxicity) | 5 (90% or more of herbicidal effect and crop phytotoxicity) | 5 (90% or more of herbicidal effect and crop phytotoxicity) | 5 (90% or more of herbicidal effect and crop phytotoxicity) | 5 (90% or more of herbicidal effect and crop phytotoxicity) | 5 (90% or more of herbicidal effect and crop phytotoxicity) | 5 (90% or more of herbicidal effect and crop phytotoxicity) |  |  |  |  |  |  | 
2 | C=C(C)Cn1c(C(F)(F)F)ccc(C(=O)C2=C(O)CCCC2=O)c1=O [I-12] | 5 (90% or more of herbicidal effect and crop phytotoxicity) | 5 (90% or more of herbicidal effect and crop phytotoxicity) | 5 (90% or more of herbicidal effect and crop phytotoxicity) | 5 (90% or more of herbicidal effect and crop phytotoxicity) | 5 (90% or more of herbicidal effect and crop phytotoxicity) | 5 (90% or more of herbicidal effect and crop phytotoxicity) | 5 (90% or more of herbicidal effect and crop phytotoxicity) |  |  |  |  |  |  | 
3 | CC(C)=CCCn1c(C(F)(F)F)ccc(C(=O)C2=C(O)CCCC2=O)c1=O [I-13] | 5 (90% or more of herbicidal effect and crop phytotoxicity) | 5 (90% or more of herbicidal effect and crop phytotoxicity) | 5 (90% or more of herbicidal effect and crop phytotoxicity) | 5 (90% or more of herbicidal effect and crop phytotoxicity) | 5 (90% or more of herbicidal effect and crop phytotoxicity) | 5 (90% or more of herbicidal effect and crop phytotoxicity) | 5 (90% or more of herbicidal effect and crop phytotoxicity) |  |  |  |  |  |  | 
4 | C#CCn1c(C(F)(F)F)ccc(C(=O)C2=C(O)CCCC2=O)c1=O [I-14] | 5 (90% or more of herbicidal effect and crop phytotoxicity) | 5 (90% or more of herbicidal effect and crop phytotoxicity) | 5 (90% or more of herbicidal effect and crop phytotoxicity) | 5 (90% or more of herbicidal effect and crop phytotoxicity) | 5 (90% or more of herbicidal effect and crop phytotoxicity) | 5 (90% or more of herbicidal effect and crop phytotoxicity) | 5 (90% or more of herbicidal effect and crop phytotoxicity) |  |  |  |  |  |  | 
5 | CC(CCn1c(C(F)(F)F)ccc(C(=O)C2=C(O)CCCC2=O)c1=O)=C(F)F [I-27] | 3 (50 to less than 70% of herbicidal effect and crop phytotoxicity) | 4 (70 to less than 90% of herbicidal effect and crop phytotoxicity) | 5 (90% or more of herbicidal effect and crop phytotoxicity) | 5 (90% or more of herbicidal effect and crop phytotoxicity) | 5 (90% or more of herbicidal effect and crop phytotoxicity) | 5 (90% or more of herbicidal effect and crop phytotoxicity) | 5 (90% or more of herbicidal effect and crop phytotoxicity) |  |  |  |  |  |  | 
6 | CC(CCCCn1c(C(F)(F)F)ccc(C(=O)C2=C(O)CCCC2=O)c1=O)=C(F)F [I-28] | 5 (90% or more of herbicidal effect and crop phytotoxicity) | 5 (90% or more of herbicidal effect and crop phytotoxicity) | 5 (90% or more of herbicidal effect and crop phytotoxicity) | 5 (90% or more of herbicidal effect and crop phytotoxicity) | 5 (90% or more of herbicidal effect and crop phytotoxicity) | 4 (70 to less than 90% of herbicidal effect and crop phytotoxicity) | 5 (90% or more of herbicidal effect and crop phytotoxicity) |  |  |  |  |  |  | 
7 | COCCCn1c(C(F)(F)F)ccc(C(=O)C2=C(O)CCCC2=O)c1=O [I-42] | 5 (90% or more of herbicidal effect and crop phytotoxicity) | 5 (90% or more of herbicidal effect and crop phytotoxicity) | 5 (90% or more of herbicidal effect and crop phytotoxicity) | 5 (90% or more of herbicidal effect and crop phytotoxicity) | 5 (90% or more of herbicidal effect and crop phytotoxicity) | 5 (90% or more of herbicidal effect and crop phytotoxicity) | 5 (90% or more of herbicidal effect and crop phytotoxicity) |  |  |  |  |  |  | 
8 | CC(Cn1c(C(F)(F)F)ccc(C(=O)C2=C(O)CCCC2=O)c1=O)OCc1ccccc1 (centres unmarked) [I-43] | 4 (70 to less than 90% of herbicidal effect and crop phytotoxicity) | 5 (90% or more of herbicidal effect and crop phytotoxicity) | 5 (90% or more of herbicidal effect and crop phytotoxicity) | 5 (90% or more of herbicidal effect and crop phytotoxicity) | 5 (90% or more of herbicidal effect and crop phytotoxicity) | 5 (90% or more of herbicidal effect and crop phytotoxicity) | 4 (70 to less than 90% of herbicidal effect and crop phytotoxicity) |  |  |  |  |  |  | 
9 | CCCS(=O)(=O)Cc1c(Br)cc(C(=O)C2=C(O)CCCC2=O)c(=O)n1-c1ccccc1 [I-237] |  |  |  |  |  |  |  | 4 (70 to less than 90% of herbicidal effect and crop phytotoxicity) | 5 (90% or more of herbicidal effect and crop phytotoxicity) | 5 (90% or more of herbicidal effect and crop phytotoxicity) | 5 (90% or more of herbicidal effect and crop phytotoxicity) |  |  | 
10 | CCSCn1c(C(F)(F)F)ccc(C(=O)C2=C(O)C3CCC(C3)C2=O)c1=O (centres unmarked) [III-26] |  |  |  |  |  |  |  | 5 (90% or more of herbicidal effect and crop phytotoxicity) | 5 (90% or more of herbicidal effect and crop phytotoxicity) | 5 (90% or more of herbicidal effect and crop phytotoxicity) | 5 (90% or more of herbicidal effect and crop phytotoxicity) |  |  | 
11 | CC[S+]([O-])Cn1c(C(F)(F)F)ccc(C(=O)C2=C(O)C3CCC(C3)C2=O)c1=O (centres unmarked) [III-27] |  |  |  |  |  |  |  | 5 (90% or more of herbicidal effect and crop phytotoxicity) | 5 (90% or more of herbicidal effect and crop phytotoxicity) | 5 (90% or more of herbicidal effect and crop phytotoxicity) | 5 (90% or more of herbicidal effect and crop phytotoxicity) |  |  | 
12 | Cn1c(C(F)(F)F)ccc(C(=O)C(C#N)C(=O)C2CC2)c1=O (centres unmarked) [V-9, 2-cyano-3-cyclopropyl-1-[1,2-dihydro-1-methyl-2-oxo-6-(trifluoromethyl)pyridin-3-yl]propane-1,3-dione] |  |  |  |  |  |  |  |  |  |  |  | 5 (90% or more of herbicidal effect and crop phytotoxicity) | 5 (90% or more of herbicidal effect and crop phytotoxicity) | 5 (90% or more of herbicidal effect and crop phytotoxicity)
13 | CCCn1c(C(F)(F)F)c(C)cc(C(=O)C(C#N)=C(O)C2CC2)c1=O [V-24] |  |  |  |  |  |  |  |  |  |  |  | 5 (90% or more of herbicidal effect and crop phytotoxicity) | 5 (90% or more of herbicidal effect and crop phytotoxicity) | 5 (90% or more of herbicidal effect and crop phytotoxicity)
14 | N#CC(C(=O)c1ccc(C(F)(F)F)n(CC2CCCO2)c1=O)=C(O)C1CC1 (centres unmarked) [V-26] |  |  |  |  |  |  |  |  |  |  |  | 5 (90% or more of herbicidal effect and crop phytotoxicity) | 4 (70 to less than 90% of herbicidal effect and crop phytotoxicity) | 5 (90% or more of herbicidal effect and crop phytotoxicity)
